Measurements as given in patent publication US12391679B2, “Benzamide-substituted bicyclic imidazo- and pyrazolo-fused -pyridine, -pyrimide, and -pyridazine compounds for treatment of inflammatory diseases” (ONCO3R Therapeutics BV, priority 2019, dated 2025).
Read-outs that look alike come from different tables or passages of the source.

Legend:
[1] = target: T1, SIK2 (Homo sapiens, UniProt Q9H0K1); test: ADP-Glo kinase assay, SIK2; assay type: biochemical
T1 construct: purchased ThermoFisher Scientific PV4792
In short: (§1)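 Luminescent ADP-formation read-out: enzyme–substrate mix + ATP, 120 min RT; ATP depletion 40 min RT; ADP→ATP conversion with luciferase/luciferin 30 min RT. Controls: 1% DMSO (negative), 10 μM staurosporine final (positive).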

[2] = system: LPS-induced TNFα in monocytes; test: Monocytes assay: LPS-triggered TNFα (ELISA); assay type: cell-based, human; details: LPS-triggered TNFα inhibition
In short: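 CD14+ monocytes were magnetically isolated from human buffy-coat PBMCs, preincubated with compound 1 h at 37 °C (0.2% DMSO), then stimulated with LPS at 200 ng/mL for 4 h. Supernatant TNFα was measured by luminescent sandwich ELISA; percentage inhibition was calculated against controls for each concentration.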

[3] = target: T2, SIK1 (Homo sapiens, UniProt P57059); test: ADP-Glo kinase assay, SIK1; assay type: biochemical
T2 construct: purchased Carna Biosciences 02-131
In short: as §1

[4] = ADP-Glo, AMARA 45 μM, 5 μM ATP, 120 min, average IC50

T2 sequence (P57059 whole entry): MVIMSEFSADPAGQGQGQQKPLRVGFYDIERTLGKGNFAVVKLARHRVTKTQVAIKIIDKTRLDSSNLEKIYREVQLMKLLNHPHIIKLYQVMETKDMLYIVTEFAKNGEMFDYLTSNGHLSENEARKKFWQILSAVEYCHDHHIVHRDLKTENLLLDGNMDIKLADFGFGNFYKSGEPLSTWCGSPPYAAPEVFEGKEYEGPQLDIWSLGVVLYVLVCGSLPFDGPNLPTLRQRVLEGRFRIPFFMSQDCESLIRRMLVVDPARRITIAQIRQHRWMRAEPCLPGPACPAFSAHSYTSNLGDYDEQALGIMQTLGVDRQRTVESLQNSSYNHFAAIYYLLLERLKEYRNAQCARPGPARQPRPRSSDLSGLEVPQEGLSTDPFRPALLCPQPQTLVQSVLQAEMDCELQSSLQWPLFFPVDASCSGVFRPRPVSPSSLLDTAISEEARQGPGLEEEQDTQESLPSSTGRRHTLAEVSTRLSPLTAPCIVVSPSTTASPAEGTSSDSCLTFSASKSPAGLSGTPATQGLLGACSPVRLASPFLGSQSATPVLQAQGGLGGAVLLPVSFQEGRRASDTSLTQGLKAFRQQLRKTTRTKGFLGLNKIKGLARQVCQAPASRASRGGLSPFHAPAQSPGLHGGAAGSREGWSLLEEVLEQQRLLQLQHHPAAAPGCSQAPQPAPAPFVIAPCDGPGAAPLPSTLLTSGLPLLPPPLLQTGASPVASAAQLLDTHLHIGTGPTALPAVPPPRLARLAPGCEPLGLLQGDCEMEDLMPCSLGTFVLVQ
T1 sequence (Q9H0K1 whole entry): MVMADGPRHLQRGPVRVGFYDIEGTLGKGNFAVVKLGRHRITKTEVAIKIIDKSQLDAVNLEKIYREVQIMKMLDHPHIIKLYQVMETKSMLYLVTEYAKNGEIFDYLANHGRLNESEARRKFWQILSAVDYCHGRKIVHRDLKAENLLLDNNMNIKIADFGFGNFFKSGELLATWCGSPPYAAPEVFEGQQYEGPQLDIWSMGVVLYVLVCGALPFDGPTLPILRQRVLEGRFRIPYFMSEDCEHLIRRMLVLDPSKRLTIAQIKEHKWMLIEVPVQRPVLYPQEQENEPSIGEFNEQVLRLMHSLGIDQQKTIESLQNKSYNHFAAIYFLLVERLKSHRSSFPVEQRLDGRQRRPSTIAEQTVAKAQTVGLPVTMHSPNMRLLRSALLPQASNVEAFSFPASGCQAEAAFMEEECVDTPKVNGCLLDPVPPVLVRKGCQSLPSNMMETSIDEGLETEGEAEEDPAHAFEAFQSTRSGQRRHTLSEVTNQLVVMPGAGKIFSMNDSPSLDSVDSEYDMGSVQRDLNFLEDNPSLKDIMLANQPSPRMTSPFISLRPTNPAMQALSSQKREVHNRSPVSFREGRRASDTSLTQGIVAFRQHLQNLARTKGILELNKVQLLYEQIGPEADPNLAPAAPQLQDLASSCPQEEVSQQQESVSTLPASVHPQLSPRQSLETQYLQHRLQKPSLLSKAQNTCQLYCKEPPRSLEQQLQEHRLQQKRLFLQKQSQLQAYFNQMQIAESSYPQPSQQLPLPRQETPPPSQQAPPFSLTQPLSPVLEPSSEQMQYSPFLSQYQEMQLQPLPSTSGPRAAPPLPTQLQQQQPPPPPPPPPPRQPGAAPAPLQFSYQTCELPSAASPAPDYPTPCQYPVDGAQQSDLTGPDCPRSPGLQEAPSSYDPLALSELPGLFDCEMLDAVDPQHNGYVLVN

Compound | IC50 [1] [nM] | EC50 ([2]; Homo sapiens, Monocyte) [nM] | IC50 [3] [nM] | IC50 [1, 4] [nM] | EC50 [2] [nM] | IC50 [3, 4] [nM]
COc1cc(-c2cnc3cc([C@@](C)(O)C4CC4)ccn23)cc(OC(F)F)c1C(=O)NC1CC1 (single isomer, unassigned) [Cpd 162, N-cyclopropyl-4-[7-(1-cyclopropyl-1-hydroxy-ethyl)imidazo[1,2-a]pyridin-3-yl]-2-(difluoromethoxy)-6-methoxy-benzamide] | > 500 | 100 to 1000 | > 500 |  |  | 
COc1cc(-c2cnc3cc([C@@](C)(C#N)CO)ccn23)cc(OC(F)F)c1C(=O)NC1CC1 (single isomer, unassigned) [Cpd 189, 4-[7-(1-cyano-2-hydroxy-1-methyl-ethyl)imidazo[1,2-a]pyridin-3-yl]-N-cyclopropyl-2-(difluoromethoxy)-6-methoxy-benzamide] | > 500 |  | > 500 |  | 100 to 1000 | 
COc1cc(-c2cnn3cc(C(C)(C)C#N)ccc23)cc(OC(F)F)c1C(=O)N[C@@H]1C[C@H]1F (single isomer, unassigned) [Cpd 257, 4-[6-(1-cyano-1-methyl-ethyl)pyrazolo[1,5-a]pyridin-3-yl]-2-(difluoromethoxy)-N-(2-fluorocyclopropyl)-6-methoxy-benzamide] |  | 100 to 1000 |  |  |  | 
COc1cc(-c2cnn3cc(C(C)(C)C#N)ccc23)cc(OC(F)F)c1C(=O)N[C@@H]1C[C@H]1F (single isomer, unassigned) [Cpd 258, 4-[6-(1-cyano-1-methyl-ethyl)pyrazolo[1,5-a]pyridin-3-yl]-2-(difluoromethoxy)-N-(2-fluorocyclopropyl)-6-methoxy-benzamide] |  |  |  |  | 100 to 1000 | 
COc1cc(-c2cnc3cc(C(C)(C)C#N)ccn23)cc(OC(F)F)c1C(=O)NC1CC1 [Cpd 19, 4-[7-(1-cyano-1-methyl-ethyl)imidazo[1,2-a]pyridin-3-yl]-N-cyclopropyl-2-(difluoromethoxy)-6-methoxy-benzamide] | > 500 | 100 to 1000 | > 500 |  |  | 
CCC(C)(C#N)c1ccn2c(-c3cc(OC)c(C(=O)NC4CC4)c(OC(F)F)c3)cnc2c1 (stereo not shown) [Cpd 27, 4-[7-(1-cyano-1-methyl-propyl)imidazo[1,2-a]pyridin-3-yl]-N-cyclopropyl-2-(difluoromethoxy)-6-methoxy-benzamide] | > 500 | 100 to 1000 | > 500 |  |  | 
COc1cc(-c2cnc3cc(C(C)(C)C#N)ccn23)cc(OC)c1C(=O)NC1CC1 [Cpd 28, 4-[7-(1-cyano-1-methyl-ethyl)imidazo[1,2-a]pyridin-3-yl]-N-cyclopropyl-2,6-dimethoxy-benzamide] | > 500 | 100 to 1000 | > 500 |  |  | 
COc1cc(-c2cnc3cc(C4(C#N)CC4)ccn23)cc(OC(F)F)c1C(=O)NC1CC1 [Cpd 33, 4-[7-(1-cyanocyclopropyl)imidazo[1,2-a]pyridin-3-yl]-N-cyclopropyl-2-(difluoromethoxy)-6-methoxy-benzamide] | 10 to 100 | 0.1 to 100 | 100 to 500 |  |  | 
COc1cc(-c2cnc3cc(C(C)(C)C#N)ccn23)cc(OC(F)F)c1C(=O)NCC1CC1 [Cpd 39, 4-[7-(1-cyano-1-methyl-ethyl)imidazo[1,2-a]pyridin-3-yl]-N-(cyclopropylmethyl)-2-(difluoromethoxy)-6-methoxy-benzamide] | > 500 | 100 to 1000 | > 500 |  |  | 
COc1cc(-c2cnc3cc(C4CN(C(C)=O)C4)ccn23)cc(OC(F)F)c1C(=O)NC1CC1 [Cpd 63, 4-[7-(1-acetylazetidin-3-yl)imidazo[1,2-a]pyridin-3-yl]-N-cyclopropyl-2-(difluoromethoxy)-6-methoxy-benzamide] | 10 to 100 | 100 to 1000 | 100 to 500 |  |  | 
COc1cc(-c2cnc3cc(C4CCCN(C(=O)OC(C)(C)C)C4)ccn23)cc(OC(F)F)c1C(=O)NC1CC1 (stereo not shown) [Cpd 64, tert-butyl 3-[3-[4-(cyclopropylcarbamoyl)-3-(difluoromethoxy)-5-methoxy-phenyl]imidazo[1,2-a]pyridin-7-yl]piperidine-1-carboxylate] | 100 to 500 | 100 to 1000 | > 500 |  |  | 
COc1cc(-c2cnc3cc(C(C)(C)C#N)ccn23)cc(OC(F)F)c1C(=O)NCC(F)F [Cpd 70, 4-[7-(1-cyano-1-methyl-ethyl)imidazo[1,2-a]pyridin-3-yl]-N-(2,2-difluoroethyl)-2-(difluoromethoxy)-6-methoxy-benzamide] | > 500 | 100 to 1000 | > 500 |  |  | 
COc1cc(-c2cnc3cc(C(C)(C)C#N)ccn23)cc(OC(F)F)c1C(=O)N1CC(C#N)C1 [Cpd 77, 1-[4-[7-(1-cyano-1-methyl-ethyl)imidazo[1,2-a]pyridin-3-yl]-2-(difluoromethoxy)-6-methoxy-benzoyl]azetidine-3-carbonitrile] | > 500 | 100 to 1000 | > 500 |  |  | 
COc1cc(-c2cnc3cc(C(C)(C)C#N)ccn23)cc(OC(F)F)c1C(=O)N[C@@H]1C[C@@H]1F [Cpd 79, 4-[7-(1-cyano-1-methyl-ethyl)imidazo[1,2-a]pyridin-3-yl]-2-(difluoromethoxy)-N-[(1R,2S)-2-fluorocyclopropyl]-6-methoxy-benzamide] | 100 to 500 | 0.1 to 100 | > 500 |  |  | 
COc1cc(-c2cnc3cc(C(C)(C)C#N)ccn23)cc(OC(F)F)c1C(=O)N1CC(F)C1 [Cpd 96, 2-[3-[3-(difluoromethoxy)-4-(3-fluoroazetidine-1-carbonyl)-5-methoxy-phenyl]imidazo[1,2-a]pyridin-7-yl]-2-methyl-propanenitrile] | > 500 | 100 to 1000 | > 500 |  |  | 
COc1cc(-c2cnn3cc(C(C)(C)C#N)ccc23)cc(OC(F)F)c1C(=O)N[C@@H]1C[C@@H]1F [Cpd 219, 4-[6-(1-cyano-1-methyl-ethyl)pyrazolo[1,5-a]pyridin-3-yl]-2-(difluoromethoxy)-N-[(1R,2S)-2-fluorocyclopropyl]-6-methoxy-benzamide] |  | 0.1 to 100 |  |  |  | 
[2H]C([2H])([2H])C(C#N)(c1ccc2c(-c3cc(OC)c(C(=O)N[C@@H]4C[C@@H]4F)c(OC(F)F)c3)cnn2c1)C([2H])([2H])[2H] [Cpd 275, 4-[6-[1-cyano-2,2,2-trideuterio-1-(trideuteriomethyl)ethyl]pyrazolo[1,5-a]pyridin-3-yl]-2-(difluoromethoxy)-N-[(1R,2S)-2-fluorocyclopropyl]-6-methoxy-benzamide] |  | 100 to 1000 |  |  |  | 

Results, then the molecule that gave them:

IC50 [1] [nM] | EC50 ([2]; Homo sapiens, Monocyte) [nM] | IC50 [3] [nM] | IC50 [1, 4] [nM] | EC50 [2] [nM] | IC50 [3, 4] [nM] | Compound
 |  |  | > 500 | 100 to 1000 | > 500 | COc1cc(-c2cnc3cc([C@@](C)(O)C4CC4)ccn23)cc(OC(F)F)c1C(=O)NC1CC1 (single isomer, unassigned) [Cpd 163, N-cyclopropyl-4-[7-(1-cyclopropyl-1-hydroxy-ethyl)imidazo[1,2-a]pyridin-3-yl]-2-(difluoromethoxy)-6-methoxy-benzamide]
> 500 | 100 to 1000 | > 500 |  |  |  | CC[C@](C)(O)c1ccn2c(-c3cc(OC)c(C(=O)NC4CC4)c(OC(F)F)c3)cnc2c1 (single isomer, unassigned) [Cpd 164, N-cyclopropyl-2-(difluoromethoxy)-4-[7-(1-hydroxy-1-methyl-propyl)imidazo[1,2-a]pyridin-3-yl]-6-methoxy-benzamide]
 |  |  | > 500 | 100 to 1000 | > 500 | CC[C@](C)(O)c1ccn2c(-c3cc(OC)c(C(=O)NC4CC4)c(OC(F)F)c3)cnc2c1 (single isomer, unassigned) [Cpd 165, N-cyclopropyl-2-(difluoromethoxy)-4-[7-(1-hydroxy-1-methyl-propyl)imidazo[1,2-a]pyridin-3-yl]-6-methoxy-benzamide]
 |  |  | > 500 | 1000 to 5000 | > 500 | COc1cc(-c2cnc3cc([C@@](C)(C#N)CO)ccn23)cc(OC(F)F)c1C(=O)NC1CC1 (single isomer, unassigned) [Cpd 190, 4-[7-(1-cyano-2-hydroxy-1-methyl-ethyl)imidazo[1,2-a]pyridin-3-yl]-N-cyclopropyl-2-(difluoromethoxy)-6-methoxy-benzamide]
> 500 | 100 to 1000 | > 500 |  |  |  | COc1cc(-c2cnc3cc(C(C)(C)O)ccn23)cc(OC(F)F)c1C(=O)NC1CC1 [Cpd 35, N-cyclopropyl-2-(difluoromethoxy)-4-[7-(1-hydroxy-1-methyl-ethyl)imidazo[1,2-a]pyridin-3-yl]-6-methoxy-benzamide]
> 500 | 100 to 1000 | > 500 |  |  |  | COc1cc(-c2cnc3cc(C(C)(C)C#N)ccn23)cc(OC(F)F)c1C(=O)N1CC(F)(F)C1 [Cpd 69, 2-[3-[4-(3,3-difluoroazetidine-1-carbonyl)-3-(difluoromethoxy)-5-methoxy-phenyl]imidazo[1,2-a]pyridin-7-yl]-2-methyl-propanenitrile]
> 500 | 100 to 1000 | > 500 |  |  |  | COc1cc(-c2cnc3cc(C(C)(C)CN)ccn23)cc(OC(F)F)c1C(=O)NC1CC1 [Cpd 93, 4-[7-(2-amino-1,1-dimethyl-ethyl)imidazo[1,2-a]pyridin-3-yl]-N-cyclopropyl-2-(difluoromethoxy)-6-methoxy-benzamide]
100 to 500 | 100 to 1000 | > 500 |  |  |  | COc1cc(-c2cnn3cc(C4CCOCC4)cnc23)cc(OC(F)F)c1C(=O)NC1CC1 [Cpd 95, N-cyclopropyl-2-(difluoromethoxy)-6-methoxy-4-(6-tetrahydropyran-4-ylpyrazolo[1,5-a]pyrimidin-3-yl)benzamide]
> 500 | 100 to 1000 | > 500 |  |  |  | COc1cc(-c2cnc3cc(C(C)(C)N)ccn23)cc(OC(F)F)c1C(=O)NC1CC1 [Cpd 106, 4-[7-(1-amino-1-methyl-ethyl)imidazo[1,2-a]pyridin-3-yl]-N-cyclopropyl-2-(difluoromethoxy)-6-methoxy-benzamide]
